Seven molecules from ChEMBL document CHEMBL1132123, “The synthesis and biological activity of a series of 2,4-diaminopyrido[2,3-d]pyrimidine based antifolates as antineoplastic and antiarthritic agents” (Bioorg Med Chem Lett, 1999) can be followed below.

A value given as a limit tells only on which side of the number the result lay.

Data set [1] deals with T1, Trifunctional purine biosynthetic protein adenosine-3 (Mus musculus, UniProt Q64737).
T1 sequence (Q64737 whole entry): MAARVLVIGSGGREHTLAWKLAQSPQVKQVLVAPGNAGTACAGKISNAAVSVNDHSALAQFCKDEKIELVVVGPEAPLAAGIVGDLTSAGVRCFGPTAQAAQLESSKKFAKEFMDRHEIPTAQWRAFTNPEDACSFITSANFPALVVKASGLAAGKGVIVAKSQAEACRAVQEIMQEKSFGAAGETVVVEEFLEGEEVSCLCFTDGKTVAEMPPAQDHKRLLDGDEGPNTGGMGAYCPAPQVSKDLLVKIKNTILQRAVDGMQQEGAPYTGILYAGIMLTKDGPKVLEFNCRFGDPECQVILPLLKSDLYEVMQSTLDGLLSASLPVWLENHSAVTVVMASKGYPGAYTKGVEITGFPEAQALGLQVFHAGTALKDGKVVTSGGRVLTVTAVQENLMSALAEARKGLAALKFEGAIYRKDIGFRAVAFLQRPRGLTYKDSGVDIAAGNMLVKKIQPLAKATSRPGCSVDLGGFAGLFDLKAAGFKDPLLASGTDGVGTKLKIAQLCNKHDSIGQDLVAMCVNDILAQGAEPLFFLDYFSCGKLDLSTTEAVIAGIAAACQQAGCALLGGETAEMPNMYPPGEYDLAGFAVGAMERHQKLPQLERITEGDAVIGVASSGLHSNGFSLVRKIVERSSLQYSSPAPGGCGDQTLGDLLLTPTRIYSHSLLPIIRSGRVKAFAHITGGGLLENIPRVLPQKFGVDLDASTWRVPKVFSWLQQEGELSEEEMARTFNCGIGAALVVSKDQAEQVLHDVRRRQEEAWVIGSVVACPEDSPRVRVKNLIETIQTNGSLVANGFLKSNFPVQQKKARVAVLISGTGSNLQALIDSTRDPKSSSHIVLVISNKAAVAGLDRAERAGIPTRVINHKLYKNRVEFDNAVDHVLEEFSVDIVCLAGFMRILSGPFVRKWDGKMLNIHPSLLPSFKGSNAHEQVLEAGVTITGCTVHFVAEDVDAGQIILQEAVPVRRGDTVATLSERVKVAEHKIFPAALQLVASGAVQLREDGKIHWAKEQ
Kind of data set: Inhibitory activity against murine glycinamide ribonucleotide formyltransferase (GARFT) enzyme.

A short description of data set [2]: Vmax/Km value was determined.
In data set [3] the target is T2, Dihydrofolate reductase (Homo sapiens, UniProt P00374).
T2 sequence (P00374 whole entry): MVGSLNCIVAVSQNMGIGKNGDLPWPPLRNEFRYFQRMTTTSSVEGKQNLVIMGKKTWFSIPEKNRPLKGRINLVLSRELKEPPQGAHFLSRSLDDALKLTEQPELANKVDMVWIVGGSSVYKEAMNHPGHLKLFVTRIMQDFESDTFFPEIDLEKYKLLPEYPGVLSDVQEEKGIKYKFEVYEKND
Kind of data set: Inhibitory activity against recombinant human dihydrofolate reductase (DHFR).

For data set [4], the target named is T3, Thymidylate synthase (Homo sapiens, UniProt P04818). Briefly: Inhibitory activity against recombinant human Thymidylate synthase enzyme.
T3 sequence (P04818 whole entry): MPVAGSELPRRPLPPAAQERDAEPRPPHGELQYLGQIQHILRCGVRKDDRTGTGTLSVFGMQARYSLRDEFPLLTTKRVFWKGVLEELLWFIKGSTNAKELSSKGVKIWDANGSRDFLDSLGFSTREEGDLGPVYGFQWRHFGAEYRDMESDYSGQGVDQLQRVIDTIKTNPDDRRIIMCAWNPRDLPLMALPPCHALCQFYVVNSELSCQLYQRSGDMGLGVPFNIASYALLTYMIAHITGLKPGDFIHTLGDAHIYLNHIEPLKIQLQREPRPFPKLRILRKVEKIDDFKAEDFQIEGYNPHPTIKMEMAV
Data set [5] concerns Rattus norvegicus. Briefly: Compound evaluated for inhibition of rat paw swelling after ip administration at 0.30 mg/kg in delayed phase. Format: functional. The settings on record: route intraperitoneal.
Data set [6] has as its system Rattus norvegicus. Kind of data set: Compound evaluated for inhibition of rat paw swelling after ip administration at 0.30 mg/kg and expressed as net swelling in mL of displaced water in delayed phase. The format is functional. The settings on record: dose 0.3 mg/kg; route intraperitoneal.
The test system of data set [7] is Rattus norvegicus. Kind of data set: Compound evaluated for inhibition of rat paw swelling after ip administration at 0.06 mg/kg and expressed as net swelling in mL of displaced water in acute phase. Format: functional. The following applies: route intraperitoneal.
Data set [8] has as its system Rattus norvegicus. Kind of data set: Compound evaluated for inhibition of rat paw swelling after ip administration at 0.125 mg/kg in delayed phase. Format: functional. The following applies: route intraperitoneal.
Data set [9] has as its system Rattus norvegicus. Briefly: Compound evaluated for inhibition of rat paw swelling after ip administration at 0.06 mg/kg in acute phase. The settings on record: route intraperitoneal. The format is functional.
The test system of data set [10] is Rattus norvegicus. Kind of data set: Compound evaluated for inhibition of rat paw swelling after ip administration at 0.125 mg/kg and expressed as net swelling in mL of displaced water in delayed phase. Format: functional. The settings on record: route intraperitoneal.
The test system of data set [11] is Rattus norvegicus. Briefly: Compound evaluated for inhibition of rat paw swelling after ip administration at 0.06 mg/kg in delayed phase. The settings on record: route intraperitoneal. Format: functional.
Data set [12] has as its system Rattus norvegicus. Kind of data set: Compound evaluated for inhibition of rat paw swelling after ip administration at 0.125 mg/kg in acute phase. The format is functional. The settings on record: route intraperitoneal.
Data set [13] concerns Rattus norvegicus. Kind of data set: Compound evaluated for inhibition of rat paw swelling after ip administration at 0.06 mg/kg and expressed as net swelling in mL of displaced water in delayed phase. Format: functional. The settings on record: route intraperitoneal.
In data set [14] the target is T3, Thymidylate synthase. Briefly: Inhibitory activity against recombinant human Thymidylate synthase.
In data set [15] the test system is Rattus norvegicus. Briefly: Compound evaluated for inhibition of rat paw swelling after ip administration at 0.125 mg/kg and expressed as net swelling in mL of displaced water in acute phase. The format is functional. The settings on record: route intraperitoneal.
Substrate in data set [16]: C[C@](CCC(=O)O)(NC(=O)c1ccc(CCC2CNc3nc(N)nc(N)c3C2)cc1)C(=O)O
Kind of data set: (§1) Maximum rate of metabolism by hog liver folyl-poly-glutamate synthetase (FPGS) was determined. The following applies: Sus scrofa.

Substrate in data set [17]: C[C@](CCC(=O)O)(NC(=O)c1ccc(CCC2CNc3nc(N)nc(N)c3C2)s1)C(=O)O
Described as §1. The settings on record: Sus scrofa.

Substrate in data set [18]: Nc1nc(O)c2c(n1)NCC(CCc1ccc(C(=O)NC(CCC(=O)O)C(=O)O)cc1)C2
The data set is described as §1. The following applies: Sus scrofa.

Substrate in data set [19]: C[C@](CCC(=O)O)(NC(=O)c1ccc(CCC2CNc3nc(N)nc(N)c3C2)o1)C(=O)O
The description is as §1. The following applies: Sus scrofa.

Substrate in data set [20]: C[C@](CCC(=O)O)(NC(=O)c1ccc(CCC2CNc3nc(N)nc(N)c3C2)cc1)C(=O)O
Briefly: (§2) Michaelis-Menten constant for hog liver folyl-poly-glutamate synthetase (FPGS). The settings on record: Sus scrofa.

Substrate in data set [21]: C[C@](CCC(=O)O)(NC(=O)c1ccc(CCC2CNc3nc(N)nc(N)c3C2)s1)C(=O)O
The data set is described as §2. The following applies: Sus scrofa.

Substrate in data set [22]: Nc1nc(O)c2c(n1)NCC(CCc1ccc(C(=O)NC(CCC(=O)O)C(=O)O)cc1)C2
The description is as §2. The following applies: Sus scrofa.

Substrate in data set [23]: C[C@](CCC(=O)O)(NC(=O)c1ccc(CCC2CNc3nc(N)nc(N)c3C2)o1)C(=O)O
The description is as §2. The following applies: Sus scrofa.

In the case of `C[C@](CCC(=O)O)(NC(=O)c1ccc(CCC2CNc3nc(N)nc(N)c3C2)s1)C(=O)O` (some centres not stated), the Ki – broadly, a measure of affinity in units of concentration, obtained from inhibition or displacement – in data set [1] was 9200 nM; in data set [3], 0.69 nM; in data set [4], more than 5000 nM. In addition, in [2], the Vmax / Km was 98.

Consider `C[C@](CCC(=O)O)(NC(=O)c1ccc(CCC2CNc3nc(N)nc(N)c3C2)o1)C(=O)O` (some centres not stated), for which the Ki in data set [1] was 710 nM; in data set [3], 9.87 nM; in data set [4], more than 5000 nM. For the same molecule, the Vmax / Km in data set [2] is 9.2.

Regarding `Nc1nc(O)c2c(n1)NCC(CCc1ccc(C(=O)NC(CCC(=O)O)C(=O)O)cc1)C2` (configuration not stated), the Vmax / Km in data set [2] is 60.

Regarding `C[C@]12CCC(=O)C=C1CCC1[C@@H]2[C@@H](O)C[C@@]2(C)[C@H]1CC[C@]2(O)C(=O)CO` (single isomer, unassigned) [HYDROCORTISONE], the inhibition in vivo (commonly how much of the control response was suppressed) at 0.3 mg/kg in data set [5] was found to be 36%. Further, in data set [6], the “Net Swelling” value stood at 0.09.

Turning to `C[C@](CCC(=O)O)(NC(=O)c1ccc(CCC2CNc3nc(N)nc(N)c3C2)cc1)C(=O)O` (some centres not stated), the “Net Swelling” value in [7] turned out to be 0.82; in data set [10], 0.12; in [13] it was 0.15; in data set [15], 0.55. The inhibition in vivo at 0.125 mg/kg in data set [8] came out at 14%; in [12], 35%. For the same molecule, the Ki in data set [1] was 56000 nM; in data set [3] it was 0.29 nM; in data set [14], more than 5000 nM. Also, the inhibition in vivo at 0.06 mg/kg in data set [9] and in [11] was 0% in each case. Also, in data set [2], the Vmax / Km amounted to 40.

Take `CN(Cc1cnc2nc(N)nc(N)c2n1)c1ccc(C(=O)N[C@@H](CCC(=O)O)C(=O)O)cc1`: in data set [2], the Vmax / Km was 4.3.

B1: Folylpolyglutamate synthase, mitochondrial (Homo sapiens), Q05932 (protein)
chain: MSRARSHLRAALFLAAASARGITTQVAARRGLSAWPVPQEPSMEYQDAVRMLNTLQTNAGYLEQVKRQRGDPQTQLEAMELYLARSGLQVEDLDRLNIIHVTGTKGKGSTCAFTECILRSYGLKTGFFSSPHLVQVRERIRINGQPISPELFTKYFWRLYHRLEETKDGSCVSMPPYFRFLTLMAFHVFLQEKVDLAVVEVGIGGAYDCTNIIRKPVVCGVSSLGIDHTSLLGDTVEKIAWQKGGIFKQGVPAFTVLQPEGPLAVLRDRAQQISCPLYLCPMLEALEEGGPPLTLGLEGEHQRSNAALALQLAHCWLQRQDRHGAGEPKASRPGLLWQLPLAPVFQPTSHMRLGLRNTEWPGRTQVLRRGPLTWYLDGAHTASSAQACVRWFRQALQGRERPSGGPEVRVLLFNATGDRDPAALLKLLQPCQFDYAVFCPNLTEVSSTGNADQQNFTVTLDQVLLRCLEHQQHWNHLDEEQASPDLWSAPSPEPGGSASLLLAPHPPHTCSASSLVFSCISHALQWISQGRDPIFQPPSPPKGLLTHPVAHSGASILREAAAIHVLVTGSLHLVGGVLKLLEPALSQ
Take B1: the Vmax – broadly, the top rate of the reaction or transport when substrate is in excess – in data set [16] came to 1190 nM/h/mg; in [17] it was 1140 nM/h/mg; in data set [18] it was 977 nM/h/mg; in [19], 696 nM/h/mg. Besides, the Km (usually the substrate concentration at which the rate is half of its maximum) in [20] is 28.2 µM; in data set [21], 11.6 µM; in [22] it was 16.4 µM; in [23], 75.3 µM.
